RP-LC retention time data for 59 compounds are collected here from the METLIN SMRT retention time set (Domingo-Almenara et al. 2019).

This series can be described thus: gradient 5% acetonitrile 3 min, to 50% in 2 min, to 85% in 15 min, held 3 min, 100 µL/min. To be noted: column: Zorbax Extend-C18 2.1 x 50 mm; eluents: water / acetonitrile, 0.1% formic acid. The procedure, abridged: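 The mobile phases were water and acetonitrile, each with 0.1% formic acid, pumped at 100 μL/min through a Zorbax Extend-C18 column (2.1 × 50 mm, 1.8 μm). Pure standards were injected as mixtures of ~100 molecules and detected by a quadrupole time-of-flight mass spectrometer in positive and negative ionization mode. Retention time came from computationally picked adduct peaks, each inspected by hand.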
`Cc1ccccc1NC(=O)NCCc1cn(CC(C)C)c2ncccc12`: the RP-LC retention time stood at 808 s.
As for `Cc1oc(C2CCN(S(=O)(=O)c3cccc(F)c3)CC2)nc1C(=O)N1CCCC1`, the figure is 913 s; as for `CCN1CCN(CCCNC(=O)CCCn2c3ccccc3c3cnn(C)c(=O)c32)CC1`, 576 s.
Compound `O=C(Nc1ccc(F)cc1)C(=O)c1cn(CC(=O)N2CCCC2)c2ccccc12` showed an RP-LC retention time of 954 s.
As for `O=C(NCC1CCOCC1)Nc1ccc(Cl)cc1C(F)(F)F`, the figure is 846 s.
The compound `CCN(C(C)=O)c1nc(-c2ccc(Br)cc2)cs1` yielded an RP-LC retention time of 1170 s.
As for `CC(C)CNc1ccc2nncn2n1`, the figure is 644 s; as for `Cc1ccc(C(O)Cn2ccn3nc(-c4cccs4)cc3c2=O)cc1` (centres undefined), 893 s; as for `CCOc1ccc(S(=O)(=O)N2CCC(c3nc(C(=O)N(C)C)c(C)o3)CC2)cc1`, 843 s.
The figure for `COc1ccc(OC)c(CNC(=O)c2cn3ccc(C)cc3n2)c1` is 541 s; for `Cc1ccc(CN2C[C@@H]3C(=O)N(CCc4ccccc4)C(=O)[C@@H]3C2)o1` it is 719 s; for `Cc1cccc(CNC(=O)CC2CCN(C(=O)c3[nH]c(C)c(C(=O)OC(C)C)c3C)CC2)c1` it is 880 s.
In turn, `CC(C)c1noc(-c2ccc(-n3cnc(C(=O)Nc4ccc(F)cc4)c3)nc2)n1` registered an RP-LC retention time of 1020 s.
Compound `COc1ccccc1NC(=O)N1CCC(CNC(=O)c2ccccc2C(F)(F)F)CC1` registered an RP-LC retention time of 763 s.
As for `CCc1noc(-c2nc(-c3cc(OC)c(OC)c(OC)c3)no2)n1`, the figure is 892 s; as for `Cc1ccc(CN2CC(=O)N(c3ccccc3)[C@@H]3CS(=O)(=O)C[C@@H]32)cc1`, 800 s; as for `C=CCNC(=O)Cn1c2c(c(=O)n3nc(-c4ccc(C)cc4)nc13)CCC2`, 720 s.
The figure for `CN1c2cc(F)ccc2C(=O)NC12CCN(C(=O)c1ccc(F)c(F)c1)CC2` is 776 s; for `O=C(c1ccn2c(-c3ccccc3Br)nnc2c1)N1CCN(c2ccccn2)CC1` it is 555 s.
The figure for `CCCNC(=O)C1CCCN(c2ccc(SCC(=O)Nc3cc(F)ccc3F)nn2)C1` (centres undefined) is 698 s; for `Cc1nc(-c2cn(C(C)C)c3ncccc23)sc1C(=O)NCc1ccccc1` it is 995 s; for `CCn1c(C(=O)NCCCN2CCOCC2)cc2c(=O)oc3ccccc3c21` it is 612 s.
`COC(=O)c1ccc(-c2nc3cnccn3c2Nc2ccc(OC)c(OC)c2)cc1` yielded an RP-LC retention time of 769 s.
As for `Cc1onc(-c2ccccc2Cl)c1C(=O)Nc1nnc(-c2cccs2)o1`, the figure is 767 s.
As for `Cc1cccc(CNC(=O)C2(C)Cn3cnc(C(=O)NC4CCCC4)c3C(=O)N2C2CC2)c1` (centres undefined), the RP-LC retention time was found to be 767 s.
The figure for `C=CCn1c(=O)c2ccccc2n(Cc2nc(-c3ccccc3Cl)no2)c1=O` is 1020 s.
As for `Cc1cccc(CN2CCCn3nc(C(=O)NC(C)Cc4ccco4)cc3C2=O)c1` (centres undefined), the figure is 919 s.
As for `CCOc1ccc(-c2nc(Cc3noc(-c4ccncc4)n3)c(C)o2)cc1`, the figure is 1010 s; as for `O=C(Nc1ccc(F)cc1F)NC1CCN(c2ccc(F)cc2)C1=O` (centres undefined), 823 s; as for `COc1ccc(NS(=O)(=O)c2cc(-c3c(C)noc3NC(C)=O)ccc2OC)c(OC)c1`, 724 s.
Compound `Cc1ccc(CNC(=O)C2CCCN(c3nnc4ccccn34)C2)o1` (centres undefined) showed an RP-LC retention time of 649 s.
Turning to `Cc1ccc(S(=O)(=O)c2cnc(N3CCN(c4cc(Cl)ccc4C)CC3)nc2N)cc1C`, the RP-LC retention time was 1420 s.
The figure for `Cc1ccc(Cn2c(=O)c(N3CCCC(C(=O)NCCc4c(C)noc4C)C3)nc3ccccc32)cc1` (centres undefined) is 1080 s; for `Cc1cccc(OCc2nc(-c3cccc(-c4csc(C)n4)c3)no2)c1` it is 1250 s; for `O=S(=O)(c1ccc2c(c1)CCCC2)N1CCCn2nc(-c3cccnc3)cc2C1` it is 781 s.
For the compound `CCOc1ccc(-n2nnc(C(=O)Nc3cccc(Cl)c3C)c2C)cc1`, the RP-LC retention time stood at 1120 s.
As for `Cc1cc(Cl)ccc1OCc1nc(-c2ccc3c(c2)nnn3CCC(=O)N2CCCC2)no1`, the figure is 1050 s.
`O=C(c1n[nH]c2c1CCCC2)N1CCn2c(nnc2-c2ccccc2)C1` displayed an RP-LC retention time of 645 s.
The figure for `O=C(NCc1ccc(F)cc1F)C1CCCN(c2nc3ccsc3c(=O)n2-c2ccc(F)cc2)C1` (centres undefined) is 885 s.
Consider `O=C(NC1CCCC1)N1CCC(c2nc(C3CCOCC3)no2)CC1`, for which the RP-LC retention time worked out at 691 s.
The figure for `COCCCNC(=O)Cc1csc(SCc2ccc(Br)cc2)n1` is 830 s; for `COc1ccc(CC(=O)Nc2ccc3c(c2)CCC(=O)N3C)c(Cl)c1` it is 768 s; for `COc1ccc(C(=O)N(Cc2cc(OC)c(OC)c(OC)c2)C2CCS(=O)(=O)C2)cc1` (centres undefined) it is 749 s.
Compound `CC(C)(C)NC(=O)C(=O)NCC1CCN(C(=O)COc2ccccc2)CC1` displayed an RP-LC retention time of 747 s.
`COc1ccc(NC2=NS(=O)(=O)C(c3ccccc3)=C2C)c(OC)c1` came in with an RP-LC retention time of 910 s.
As for `Cc1ccc(NC(=O)Nc2ccc(CC(N)=O)cc2)cc1C`, the figure is 675 s.
As for `Cc1cnc(C2CC2)n1CCNC(=O)c1cccn1C`, the figure is 579 s.
In turn, `CN(C)c1ccc(CCCNC(=O)C2CC2)cc1` showed an RP-LC retention time of 525 s.
As for `Cc1oc(-c2ccc(NC(=O)Cc3cccc(F)c3)cc2)nc1Cn1cccn1`, the figure is 814 s; as for `O=C(NCc1ccccc1)N1CCCC1c1nc(-c2ccccc2)n[nH]1` (centres undefined), 731 s; as for `CC(CCc1ccccc1)NC(=O)Cc1nnc(-c2ccc3ncccc3c2)o1` (centres undefined), 761 s.
The figure for `CC(C)NC(=O)C1CCN(S(=O)(=O)c2cc(-c3noc(C4CCC4)n3)cs2)CC1` is 913 s; for `O=C(NCc1ccc2c(c1)OCO2)C1CCN(C(=O)c2cccc(F)c2)CC1` it is 719 s.
As for `CCN1C(=O)c2cccnc2Sc2cc(NC(=O)c3ccc(C(F)(F)F)cc3)ccc21`, the figure is 950 s; as for `CC1CCN(S(=O)(=O)N2CCCC(C(=O)NC3CCN(Cc4ccccc4)CC3)C2)CC1` (centres undefined), 713 s.
The compound `Cc1ccc(-c2nc3ncccn3c2Nc2ccc(C)c(C)c2)cc1` returned an RP-LC retention time of 848 s.
As for `COc1ccc(Cl)cc1NC(=O)Cn1nc(N2CCCC2)c2ccccc2c1=O`, the figure is 1090 s; as for `CCOc1ccc(N2C(=O)C3N=NN(Cc4nc(-c5ccccc5Br)no4)C3C2=O)cc1` (centres undefined), 1010 s.
`COc1ccc(-c2noc(C3CCCN3C(=O)Nc3ccc(F)c(Cl)c3)n2)cc1` (centres undefined) showed an RP-LC retention time of 1030 s.
